Laboratory results from patent publication US20240390285A1, “HIGH-DOSE COMPRESSIBLE DOSAGE FORMS MANUFACTURED BY SIMULTANEOUS MELT-COATING AND MELT-GRANULATION OF ACTIVE PHARMACEUTICAL INGREDIENTS” (Rutgers, The State University of New Jersey, priority 2021, published 2024).
Several values for one entry are separate records, joined by “and”; a condition that tells them apart may be missing. Equal entries are not always repeated. Where two headings read alike, the source gives them in different places.

Key:
[1] = Granule tabletability, […] compactor simulator; assay type: physicochemical; settings: 600 mg darunavir, 12 mm
Protocol: This provided an assessment of granule tabletability using a […] compactor simulator, producing 12 mm flat cylindrical tablets having a thickness of approximately 4.6 mm.
The processing parameters for the granules in table 8 were: 0.4 kg/h throughput, 300 rpm screw speed, 60° C. processing temperature.
The granules were blended with 1% of MgSt and formed into tablets using […] tooling.

[2] = Percent loss-on-drying (LOD); assay type: physicochemical
[3] = cited from earlier work
[4] = cited from earlier work; remark: listed apart in the source
[5] = tablet 96% darunavir + 1% MgSt + 3% CMC-Na, avg. pre-compression force 1.54-1.84 kN
[6] = tablet 99% darunavir + 1% MgSt, avg. pre-compression force 1.67-1.80 kN
[7] = tablet 99% darunavir + 1% MgSt, avg. pre-compression force 9.59-10.16 kN

SMILES | Avg. Crushing Force/Hardness [1, 5] | Tablet density [1, 5] | Tensile Strength [1, 5] | Avg. Crushing Force/Hardness [1, 6] | Tablet density [1, 6] | Tensile Strength [1, 6] | Avg. Crushing Force/Hardness [1, 7] | Tablet density [1, 7] | Tensile Strength [1, 7] | percent loss-on-drying, Avg. ([2]; average of 3 samples) | percent loss-on-drying (weight loss due to moisture evaporation) ([2]; individual Samples 1-3, listed as Pure Darunavir) | solubility ([3]; pH of 2.0-5.5) | solubility ([3]; pH of 5.5-6.1) | dissociation constant, pKa [4]
CC(C)CN(C[C@@H](O)[C@H](Cc1ccccc1)NC(=O)O[C@H]1CO[C@H]2OCC[C@H]21)S(=O)(=O)c1ccc(N)cc1 [darunavir, Darunavir] | 65.3 N | 1.16 g/mL | 0.76 MPa | 42.9 N | 1.14 g/mL | 0.49 MPa | 36.8 N | 1.15 g/mL | 0.42 MPa | 4.42% | 4.36% and 4.28% and 4.63% |  |  | 
NC(=O)c1nc(F)c[nH]c1=O [favipiravir, 6-fluoro-3-oxo-3,4-dihydropyrazine-2-carboxamide] |  |  |  |  |  |  |  |  |  |  |  | only slightly soluble | sparingly soluble | 5.1
